Tested on: lipid peroxidation induced by iron
Test: Inhibitory effect on iron-induced lipid peroxidation in rat brain homogenate (MDA measurement, N-methyl-2-phenylindole, Bioxytech LPO-586 Kit)
Format: biochemical
Settings: FeCl2 400 μM, 30 min at 37° C., decrease of MDA vs DMSO control, absorption at 586 nm
Experimental: The inhibitory effect of the present compounds on lipid peroxidation induced by iron was evaluated as follows:
Rat brain was homogenized in Krebs buffer (15 mM HEPES, 10 mM glucose, 140 mM NaCl, 3.6 mM KCl, 1.5 mM CaCl2, 1.4 mM KH2PO4 and 0.7 mM MgCl, pH 7.4) and centrifuged at 12,000 rpm to obtain the supernatant serving as a raw material of lipid. To the brain homogenates, FeCl^2 was added to give a final concentration of 400 μM and allowed to stand for 30 min at 37° C. for promoting oxidation. Each of the compounds to be tested was added to give a concentration of 12.5 μM and a control group was solely added with dimethylsulfoxide (DMSO).
When iron is added to brain homogenates, oxidation is promoted to increase the amount of malondialdehyde (MDA) as lipid peroxidation product. Therefore, in this Example, the level of lipid peroxidation was evaluated according to MDA measurement method. In general MDA measurement, the test sample is reacted with TBA (2-thiobarbituric acid) and the absorbance at 530 nm was measured. However, since such process includes a boiling step, it is unsuitable for dealing with test samples in large quantity. Therefore, in this Example, N-methyl-2-phenylindole was used as a color developing reagent in place of TBA so as to avoid boiling step. […] The inhibitory effect on lipid peroxidation of test compounds was evaluated by calculating the decreased level of MDA in percentage based on the amount of MDA in the control group. For the test compounds showing more than 80% inhibitory effect, the concentration-lipid peroxidation inhibition curves were plotted with reference to the decrease rate of MDA amount based on the amount of MDA in the control group and their IC50 values was calculated through least linear regression analysis.
In addition, the representative antioxidants commercialized such as Promethazine, Trolox, Probucol and N-propyl gallate were examined in terms of 50% inhibition concentration (IC50) according to the above procedure and the results are shown in Table 4.

| Compound | IC50 [µM] |
| --- | --- |
| CNc1ccc2c(c1)C(OCCC1CCCCC1)C(OCc1cccc(Cl)c1)C(C)(C)O2 (stereo not shown) [Compound 5-103] | 5.1 |
| CCNc1ccc2c(c1)C(OCC)C(OC(=O)C1CCCCC1)C(C)(C)O2 (stereo not shown) [Compound 5-1563] | 2.05 |
| COC1c2cc(NCc3ccc(F)cc3)ccc2OC(C)(C)C1OC(=O)c1ccccc1 (stereo not shown) [Compound 5-1765] | 5.13 |
| CC1(C)Oc2ccc(NCc3ccccc3)cc2C(OCCc2ccccc2)C1OCc1ccc(F)cc1 (stereo not shown) [Compound 5-306] | 4.12 |
| CC1(C)Oc2ccc(NCc3ccc(F)cc3)cc2C(OCc2ccccc2)C1OC(=O)c1ccc(F)cc1 (stereo not shown) [Compound 5-1808] | 3.97 |
| CNc1ccc2c(c1)C(OCc1ccccc1)C(OCc1ccc(C)cc1)C(C)(C)O2 (stereo not shown) [Compound 5-72] | 7.39 |
| CNc1ccc2c(c1)C(OC)C(OC(=O)C1CCCCC1)C(C)(C)O2 (stereo not shown) [Compound 5-1483] | 2.39 |
| COc1ccc(C(=O)OC2C(OC)c3cc(NCc4ccc(C)cc4)ccc3OC2(C)C)cc1 (stereo not shown) [Compound 5-1837] | 4.25 |
| CCNc1ccc2c(c1)C(OCC)C(OC(=O)c1cccs1)C(C)(C)O2 (stereo not shown) [Compound 5-1569] | 3.41 |
| CC(CN1c2ccccc2Sc2ccccc21)N(C)C (stereo not shown) [Promethazine, reference compound] | 10.2 |
| CCCCOC1c2cc(NC)ccc2OC(C)(C)C1OCc1cccc(Cl)c1 (stereo not shown) [Compound 5-55] | 2.61 |
| COC1c2cc(NCc3ccc(F)cc3)ccc2OC(C)(C)C1OC(=O)CC(C)(C)C (stereo not shown) [Compound 5-1762] | 1.8 |
| CC(C)OC1c2cc(NCc3ccc(F)cc3)ccc2OC(C)(C)C1OCc1ccc2ccccc2c1 (stereo not shown) [Compound 5-490] | 2.24 |
| CCOC1c2cc(NCc3ccc(F)cc3)ccc2OC(C)(C)C1OCc1ccc(Br)cc1F (stereo not shown) [Compound 5-473] | 2.72 |
| C#CCOC1C(OCCCC)c2cc(NCc3ccc(F)cc3)ccc2OC1(C)C (stereo not shown) [Compound 5-512] | 3.6 |
| C/C=C/COC1C(OCCCC)c2cc(NCc3ccc(F)cc3)ccc2OC1(C)C (stereo not shown) [Compound 5-510] | 9.45 |
| C#CCOC1C(OCc2ccccc2)c2cc(NC)ccc2OC1(C)C (stereo not shown) [Compound 5-80] | 1.08 |
| C/C=C/COC1C(OCc2ccccc2)c2cc(NC)ccc2OC1(C)C (stereo not shown) [Compound 5-78] | 1.14 |
| CCNc1ccc2c(c1)C(OCC)C(OC(=O)CC(C)(C)C)C(C)(C)O2 (stereo not shown) [Compound 5-1562] | 3.03 |

| Compound | IC50 [µM] |
| --- | --- |
| C=CCOC1C(OCc2ccccc2)c2cc(NC)ccc2OC1(C)C (stereo not shown) [Compound 5-79] | 0.79 |
| COc1ccc(C(=O)OC2C(OC)c3cc(NCc4ccc(F)cc4)ccc3OC2(C)C)cc1 (stereo not shown) [Compound 5-1767] | 2.63 |
| COC1c2cc(NCc3ccc(C)cc3)ccc2OC(C)(C)C1OCc1ccccc1Cl (stereo not shown) [Compound 5-566] | 5.73 |
| CCOC1c2cc(NCc3ccc(F)cc3)ccc2OC(C)(C)C1OCc1ccccc1C (stereo not shown) [Compound 5-469] | 4.38 |
| CCOC1c2cc(NCc3ccc(F)cc3)ccc2OC(C)(C)C1OCc1ccccc1 (stereo not shown) [Compound 5-465] | 6.41 |
| CC1(C)Oc2ccc(NCc3ccccc3)cc2C(OCCc2ccccc2)C1OCc1ccccc1Cl (stereo not shown) [Compound 5-311] | 1.19 |
| CCOC1c2cc(NCc3ccc(F)cc3)ccc2OC(C)(C)C1OCc1ccc(C(C)(C)C)cc1 (stereo not shown) [Compound 5-467] | 3.6 |
| CC(C)(Sc1cc(C(C)(C)C)c(O)c(C(C)(C)C)c1)Sc1cc(C(C)(C)C)c(O)c(C(C)(C)C)c1 [Probucol, reference compound] | 18.2 |
| C=CCOC1C(OC(C)C)c2cc(NCc3ccc(F)cc3)ccc2OC1(C)C (stereo not shown) [Compound 5-495] | 2.04 |
| CC1(C)Oc2ccc(NCc3ccccc3)cc2C(OCc2ccccc2)C1OCc1ccccc1 (stereo not shown) [Compound 5-289] | 1.32 |
| CC1(C)Oc2ccc(NCc3ccccc3)cc2C(OCc2ccccc2)C1OCc1cccc(Cl)c1 (stereo not shown) [Compound 5-295] | 1.29 |
| CCNc1ccc2c(c1)C(OCC)C(OC(=O)c1ccco1)C(C)(C)O2 (stereo not shown) [Compound 5-1570] | 3.03 |
| CC1(C)Oc2ccc(NCc3ccc(F)cc3)cc2C(OCc2ccccc2)C1OCc1ccc(F)cc1 (stereo not shown) [Compound 5-514] | 2.39 |
| CNc1ccc2c(c1)C(OCCC1CCCCC1)C(OCc1ccccc1C)C(C)(C)O2 (stereo not shown) [Compound 5-101] | 6.03 |
| COC1c2cc(NCc3ccc(C)cc3)ccc2OC(C)(C)C1OC(=O)c1ccc(F)cc1 (stereo not shown) [Compound 5-1838] | 1.31 |
| CC1(C)Oc2ccc(NCc3ccccc3)cc2C(OCCc2ccccc2)C1OCc1cc(C(F)F)cc(C(F)(F)F)c1 (stereo not shown) [Compound 5-315] | 3.43 |
| CC1(C)Oc2ccc(NCc3ccc(F)cc3)cc2C(OCc2ccccc2)C1OC(=O)c1ccco1 (stereo not shown) [Compound 5-1810] | 4.34 |
| CNc1ccc2c(c1)C(OCCC1CCCCC1)C(OCc1cccc(F)c1)C(C)(C)O2 (stereo not shown) [Compound 5-100] | 3.89 |

Further molecules by falling IC50, results first:

| IC50 [µM] | Compound |
| --- | --- |
| 24.6 | Cc1c(C)c2c(c(C)c1O)CCC(C)(C(=O)O)O2 (stereo not shown) [Trolox, reference compound] |
| 6.47 | COC1c2cc(NCc3ccc(C)cc3)ccc2OC(C)(C)C1OCc1ccc(F)cc1 (stereo not shown) [Compound 5-562] |
| 5.85 | Cc1ccc(COC2C(OCc3ccccc3)c3cc(NCc4ccccc4)ccc3OC2(C)C)cc1 (stereo not shown) [Compound 5-296] |
| 5.85 | Cc1ccc(C(=O)OC2C(OCc3ccccc3)c3cc(NCc4ccc(F)cc4)ccc3OC2(C)C)cc1 (stereo not shown) [Compound 5-1806] |
| 5.55 | C#CCOC1C(OCC)c2cc(NCc3ccc(F)cc3)ccc2OC1(C)C (stereo not shown) [Compound 5-480] |
| 5.51 | CNc1ccc2c(c1)C(OCCC1CCCCC1)C(OCc1ccc3ccccc3c1)C(C)(C)O2 (stereo not shown) [Compound 5-106] |
| 5.2 | CCCCOC1c2cc(NC)ccc2OC(C)(C)C1OCc1ccc(C(C)(C)C)cc1 (stereo not shown) [Compound 5-51] |
| 4.6 | CC1(C)Oc2ccc(NCc3ccc(F)cc3)cc2C(OCc2ccccc2)C1OCc1cccc(Cl)c1 (stereo not shown) [Compound 5-519] |
| 3.63 | CCCCCOC1C(OCC)c2cc(NCc3ccc(F)cc3)ccc2OC1(C)C (stereo not shown) [Compound 5-477] |
| 3.55 | CC(C)(C)c1ccc(COC2C(OCCc3ccccc3)c3cc(NCc4ccccc4)ccc3OC2(C)C)cc1 (stereo not shown) [Compound 5-307] |
| 3.11 | COC1c2cc(NCc3ccc(F)cc3)ccc2OC(C)(C)C1OC(=O)c1ccco1 (stereo not shown) [Compound 5-1770] |
| 3.1 | CCCCOC1c2cc(NC)ccc2OC(C)(C)C1OC(=O)c1ccco1 (stereo not shown) [Compound 5-1520] |
| 2.9 | Cc1ccccc1COC1C(OCCc2ccccc2)c2cc(NCc3ccccc3)ccc2OC1(C)C (stereo not shown) [Compound 5-309] |
| 2.73 | COC1c2cc(NCc3ccc(F)cc3)ccc2OC(C)(C)C1OC(=O)c1ccc(F)cc1 (stereo not shown) [Compound 5-1768] |
| 1.29 | COC1c2cc(NCc3ccc(C)cc3)ccc2OC(C)(C)C1OC(=O)C=C(C)C (stereo not shown) [Compound 5-1834] |
| 1.14 | COC1c2cc(NCc3ccc(C)cc3)ccc2OC(C)(C)C1OC(=O)c1ccccc1 (stereo not shown) [Compound 5-1835] |
| 1.13 | CNc1ccc2c(c1)C(OCc1ccccc1)C(OCc1ccccc1)C(C)(C)O2 (stereo not shown) [Compound 5-65] |
| 1.1 | CC1(C)Oc2ccc(NCc3ccccc3)cc2C(OCCc2ccccc2)C1OCc1ccccc1Cl (stereo not shown) [Compound 5-310] |
| 1.07 | COC1c2cc(NCc3ccc(C)cc3)ccc2OC(C)(C)C1OC(=O)c1cccs1 (stereo not shown) [Compound 5-1839] |
| 0.91 | CC(C)OC1c2cc(NCc3ccc(F)cc3)ccc2OC(C)(C)C1OCc1ccccc1Cl (stereo not shown) [Compound 5-486] |
| 0.12 | C=CCOC1C(OCCCC)c2cc(NCc3ccc(F)cc3)ccc2OC1(C)C (stereo not shown) [Compound 5-511] |

From patent US6908942B2, “6-amino-2,2-dimethyl-3,4,6-trisubstituted benzopyran derivatives and their construction by parallel synthesis on solid-phase” (Korea Research Institute of Chemical Technology, priority 2002, dated 2005)
